Measurements: patent US20080176266A1, “Biomarkers Of Metabolic Responses To Hepatotoxicants And Carcinogens” (priority 2006, published 2008)
Marks after values point to notes of the source that are not given here.

What was measured:
Sprague Dawley rats [1] = assay: Liver-to-body weight ratio (LBR), F-tests; assay type: in vivo, rat; settings: Day 14 animals, with time and with dose, not the interaction of dose-time
Excerpt: Liver hypertrophy is a well-known clinical end-point of chronic clofibrate exposure, however, the biomarkers of this pathology are unknown. Using the measurements of the liver weight and the body weight of the animals, we calculated the liver-to-body weight ratio (LBR). […] Second, we discovered the components that could classify the LBR in the liver and in the serum. This was accomplished out using a step wise regression method with the LBR as the response variable and all of the components as independent variables. After an iterative selection procedure, 29 of the best components from the serum and the liver were used to build the reduced model given below: […]

Sprague Dawley rats [2] = assay: Liver histology; assay type: in vivo; settings: rat liver
Protocol: […] Six rats per dose group were euthanized at 6 and 24 h post-dose. Serum (for metabolomics and alanine aminotransferase (ALT), and aspartate aminotransferase (AST)), liver lobes (for histology), and frozen liver and urine (for metabolomics) were collected. Six rats per dose group were placed in metabolism cages for urine collection at −24-0 h, 0-6 h, 6-24 h and 24-48 h. These rats were removed from metabolism cages at 48 h post-dose, for blood and liver collection. The detailed study design is set forth in Chart 1.

rats = settings: cited from earlier work
Sprague Dawley rats [3] = assay: Liver enzymes ALT and AST in serum; assay type: in vivo; settings: rat serum, 0, 50, 250 mg/kg, any groups
Protocol: In detail, a single dose of clofibrate or vehicle was administered by gavage (0, 50 and 250 mg/kg) to groups of 18 male Sprague Dawley rats at 11 wks age. Six rats per dose group were euthanized at 6 and 24 h post-dose. Serum (for metabolomics and alanine aminotransferase (ALT), and aspartate aminotransferase (AST)), liver lobes (for histology), and frozen liver and urine (for metabolomics) were collected. Six rats per dose group were placed in metabolism cages for urine collection at −24-0 h, 0-6 h, 6-24 h and 24-48 h. These rats were removed from metabolism cages at 48 h post-dose, for blood and liver collection. The detailed study design is set forth in Chart 1.

DNA = settings: short term treatment; Gonzalez et al. (1998); cited from earlier work
Sprague Dawley rats [4] = assay: GC-MS metabolomics of liver from rats exposed to clofibrate; assay type: in vivo; settings: rat liver, 250 mg/kg/d
Protocol: In one embodiment, the hepatotoxicant is clofibrate. Clofibrate or vehicle is administered orally (0, 50, 250 mg/kg/d) to groups of 6 rats and serum and livers are collected 6 and 24 h after either a single or 14 daily doses. Global biochemical profiles are determined by LC-MS and GC-MS and components highly perturbed by clofibrate exposure are identified by the methods described above. […] Rats (6 per group) were dosed by gavage with vehicle, 50 or 250 mg/kg clofibrate per day for 1 (single dose) or 14 days (repeated dose). These groups are referred to as “day 1” and ‘day 14 (d 1 and d14).” Liver and serum were collected at 6 and 24 h post-dosing in the day 1 and day 14. In detail, a single dose of clofibrate or vehicle was administered by gavage (0, 50 and 250 mg/kg) to groups of 18 male Sprague Dawley rats at 11 wks age. Six rats per dose group were euthanized at 6 and 24 h post-dose. Serum (for metabolomics and alanine aminotransferase (ALT), and aspartate aminotransferase (AST)), liver lobes (for histology), and frozen liver and urine (for metabolomics) were collected. Six rats per dose group were placed in metabolism cages for urine collection at −24-0 h, 0-6 h, 6-24 h and 24-48 h. These rats were removed from metabolism cages at 48 h post-dose, for blood and liver collection. The detailed study design is set forth in Chart 1. For GC-MS, liver was extracted with CHCl3:MeOH mixtures. Organic residue was derivitized with BSTFA and dried aqueous residues were derivitized with methoxyamine HCl/BSTFA. Samples were injected with 10:1 split into an Agilent 6890 gas chromatograph. A Leco Pegasus III TOFMS was used. Ions were generated at 70 eV with 3.2 mA ionization current; 25 spectra/s were recorded for 60-800 m/z. Acceleration voltage activated after 180 s solvent delay. Detector voltage: 1750 V. Data were processed with Leco ChromaTOF software. Automatic peak detection and mass spectrum deconvolution were performed using 1.33 s peak width. Peaks with S/N less than 20 were rejected. Component identification was accomplished with the NIST 98' MS library and, in some cases, verified with standards. Components with similarity greater than 600 were used for analysis.

## CCOC(=O)C(C)(C)Oc1ccc(Cl)cc1 [clofibrate, ethyl-p-chloro-phenoxyisobutyrate]
Sprague Dawley rats [1]
  Liver-to-body weight ratio (LBR): significantly increased
Sprague Dawley rats [2]; after 14 doses at 250 mg/kg/day, all time points
  Histology: hepatocellular cytologic alterations: hepatocellular cytologic alterations (indicating loss of glycogen and eosinophilic granular cytoplasm) were noted
Sprague Dawley rats [2]; after a single dose, 50 to 250 mg/kg
  Histology: hepatocellular mitotic figures: dose related increase and severity of hepatocellular mitotic figures
rats; 24 h after a single exposure
  Microscopic changes to liver: no microscopic changes
rats; after 2 weeks
  Liver histopathology: induced hypertrophy
Sprague Dawley rats [3]
  ALT: not elevated
  AST: not elevated
DNA
  DNA adducts: no DNA adducts have been observed
Sprague Dawley rats [4]; Day 1, 6 H
  Hepatic 1-Mono linoleoylglycerol (fold change): 1.11*** fold change
  Hepatic 1-Mono oleoylglycerol (fold change): 0.98* fold change
  Hepatic 1-Mono palmitoylglycerol (fold change): 0.91** fold change
  Hepatic 2-Mono oleoylglycerol (fold change): 1.12*** fold change
  Hepatic Cholesterol (fold change): 1.34*** fold change
  Hepatic Glucose (aq) (fold change): 0.29* fold change
  Hepatic Glycine (fold change): 2.69** fold change
  Hepatic Lactic acid (fold change): 1.56** fold change
  Hepatic Linoleic acid (fold change): 0.97* fold change
  Hepatic Palmitate (fold change): 0.95*** fold change
  Hepatic Stearate (fold change): 1.07* fold change
Sprague Dawley rats [4]; Day 1, 24 H
  Hepatic 1-Mono stearoylglycerol (fold change): 17.14** fold change
  Hepatic Glycerol 1(3)-phosphate (fold change): 2.56* fold change
  Hepatic Glycine (fold change): 3.42* fold change
  Hepatic L-Aspartic acid (fold change): 27.88*** fold change
  Hepatic Lactic acid (fold change): 4.41* fold change
  Hepatic Succinic acid (Butanedioic acid) (fold change): 17.05** fold change
  Hepatic l-Alanine (fold change): 4.74* fold change
Sprague Dawley rats [4]; Day 14, 6 H
  Hepatic 1-Mono palmitoylglycerol (fold change): 0.04** fold change
  Hepatic 1-Mono stearoylglycerol (fold change): 0.22** fold change
  Hepatic 2-Mono stearoylglycerol (fold change): 0.41* fold change
  Hepatic Arachidonic acid (fold change): 0.22*** fold change
  Hepatic Cholesterol (fold change): 1.87** fold change
  Hepatic Malate (fold change): 0.1** fold change
  Hepatic Palmitate (fold change): 0.72** fold change
  Hepatic β-Sitosterol (fold change): 0.37** fold change
Sprague Dawley rats [4]; Day 14, 24 H
  Hepatic Cholesterol (fold change): 0.69** fold change
  Hepatic Docosahexaenoic acid (fold change): 0.58* fold change
  Hepatic Glucose (aq) (fold change): 0.39** fold change
  Hepatic Malate (fold change): 0.33** fold change
  Hepatic β-Sitosterol (fold change): 0.46* fold change
Sprague Dawley rats [4]; GC-MS
  Clofibrate metabolite Propanoic acid, 2-(4-chlorophenoxy)-2-methyl- detected in liver: (not present in control)
